Tests used:
[1] = tested on: Puccinia recondita f. Sp. Tritici; assay: Fungicidal activity against Puccinia recondita f. sp. tritici / wheat / leaf disc curative (brown rust); assay type: in vivo; conditions: foliar, 24 h, 200 ppm in the applied formulation, wheat leaf segments, curative (applied 1 day after inoculation), compared to untreated control leaf disks, read-out: disease control
In short: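 % disease control vs untreated, scored 6–8 d post-application. Wheat cv. Kanzler segments, spore-inoculated, dark 19° C/75% RH; formulated cpd applied 1 d post-inoc; then 19° C, 75% RH, 12 h L/12 h D.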

[2] = tested on: Glomerella lagenarium (Colletotrichum lagenarium); assay: Fungicidal activity against Glomerella lagenarium (Colletotrichum lagenarium) liquid culture / cucumber / preventative (anthracnose); assay type: cell-based; conditions: Colletotrichum orbiculare; 20 ppm in the applied formulation; liquid culture (PDB), growth inhibition measured photometrically after 3 to 4 days; compared to untreated control; read-out: disease control
In short: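 Percent activity against the untreated check was derived from photometric growth measurements made 2 to 7 days after conidia in potato dextrose broth were combined with compound at 20 ppm. Cultures were kept dark at 24 °C and 96% humidity.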

[3] = tested on: Puccinia recondita f. Sp. Tritici; assay: Fungicidal activity against Puccinia recondita f. sp. tritici / wheat / leaf disc preventative (brown rust); assay type: in vivo; conditions: foliar, 200 ppm in the applied formulation, wheat leaf segments, preventative, compared to untreated control leaf disks, read-out: disease control
In short: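 Percent disease control relative to untreated check segments is scored once disease develops, 7 to 9 days after application. Wheat cv. Kanzler segments receive compound spray (200 ppm in formulation) one day before spore inoculation, then sit at 19° C. and 75% rh under 12 h light/12 h dark.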

[4] = tested on: Phakopsora Pachyrhizi; assay: Fungicidal activity against Phakopsora pachyrhizi / soybean / leaf disc preventative (Asian soybean rust); assay type: in vivo; conditions: foliar, 200 ppm in the applied formulation, soybean leaf disks, compared to untreated control leaf disks, read-out: disease control
In short: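 Scored 12 to 14 days post-application as percent control relative to untreated check discs, rust spores were sprayed under the disc one day after compound treatment. Incubation: 20°C, 75% rh, first 24–36 h in darkness, then 12 h daily light; discs kept on water agar.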

C#CCN(Cc1ccc(-c2noc(C(F)(F)F)n2)cc1)C(=O)C1(C)CC1 [Compound 1.183, 1-methyl-N-prop-2-ynyl-N-[[4-[5-(trifluoromethyl)-1,2,4-oxadiazol-3-yl]phenyl]methyl]-cyclopropane-carboxamide]
≥ 80%: pest or weed control at 200 ppm [1] | inhibition of growth at 20 ppm [2] | pest or weed control at 200 ppm [3] | pest or weed control at 200 ppm [4]

C#CCN(Cc1ccc(-c2noc(C(F)(F)F)n2)cc1)C(=O)CC [Compound 1.185, N-prop-2-ynyl-N-[[4-[5-(trifluoromethyl)-1,2,4-oxadiazol-3-yl]phenyl]methyl]-propanamide]
≥ 80%: pest or weed control at 200 ppm [1] | inhibition of growth at 20 ppm [2] | pest or weed control at 200 ppm [3] | pest or weed control at 200 ppm [4]

C#CCN(Cc1ccc(-c2noc(C(F)(F)F)n2)cc1)C(=O)C(=C)C [Compound 1.187, 2-methyl-N-prop-2-ynyl-N-[[4-[5-(trifluoromethyl)-1,2,4-oxadiazol-3-yl]phenyl]methyl]-prop-2-enamide]
≥ 80%: pest or weed control at 200 ppm [1] | inhibition of growth at 20 ppm [2] | pest or weed control at 200 ppm [3] | pest or weed control at 200 ppm [4]

C#CCN(Cc1ccc(-c2noc(C(F)(F)F)n2)cc1)C(=O)C1CC1(C)C (stereo not shown) [Compound 1.189, 2,2-dimethyl-N-prop-2-ynyl-N-[[4-[5-(trifluoromethyl)-1,2.4-oxadiazol-3-yl]phenyl]methyl]-cyclopropane-carboxamide]
≥ 80%: pest or weed control at 200 ppm [1] | inhibition of growth at 20 ppm [2] | pest or weed control at 200 ppm [3] | pest or weed control at 200 ppm [4]

C#CCN(Cc1ccc(-c2noc(C(F)(F)F)n2)cc1)C(=O)C(C)CC (stereo not shown) [Compound 1.191, 2-methyl-N-prop-2-ynyl-N-[[4-[5-(trifluoromethyl)-1,2,4-oxadiazol-3-yl]phenyl]methy]-butanamide]
≥ 80%: pest or weed control at 200 ppm [1] | inhibition of growth at 20 ppm [2] | pest or weed control at 200 ppm [3] | pest or weed control at 200 ppm [4]

C#CCN(Cc1ccc(-c2noc(C(F)(F)F)n2)cc1)C(=O)C1(C)COC1 [Compound 1.192, 3-methyl-N-prop-2-ynyl-N-[[4-[5-(trifluoromethyl)-1,2,4-oxadiazol-3-yl]phenyl]methyl]-oxetane-3-carboxamide]
≥ 80%: pest or weed control at 200 ppm [1] | inhibition of growth at 20 ppm [2] | pest or weed control at 200 ppm [3] | pest or weed control at 200 ppm [4]

C#CCN(Cc1ccc(-c2noc(C(F)(F)F)n2)cc1)C(=O)C(CC)COC (stereo not shown) [Compound 1.194, 2-(methoxymethyl)-N-prop-2-ynyl-N-[[4-[5-(trifluoromethyl)-1,2,4-oxadiazol-3-yl]phenyl]methyl]-butanamide]
≥ 80%: pest or weed control at 200 ppm [1] | inhibition of growth at 20 ppm [2] | pest or weed control at 200 ppm [3] | pest or weed control at 200 ppm [4]

C#CCN(Cc1ccc(-c2noc(C(F)(F)F)n2)cc1)C(=O)CCCOC [Compound 1.196, 4-methoxy-N-prop-2-ynyl-N-[[4-[5-(trifluoromethyl)-1,2,4-oxadiazol-3-yl]phenyl]methyl]-butanamide]
≥ 80%: pest or weed control at 200 ppm [1] | inhibition of growth at 20 ppm [2] | pest or weed control at 200 ppm [3] | pest or weed control at 200 ppm [4]

C#CCN(Cc1ccc(-c2noc(C(F)(F)F)n2)cc1)C(=O)CC#N [Compound 1.199, 2-cyano-N-prop-2-ynyl-N-[[4-[5-(trifluoromethyl)-1,2,4-oxadiazol-3-yl]phenyl]methyl]-acetamide]
≥ 80%: pest or weed control at 200 ppm [1] | inhibition of growth at 20 ppm [2] | pest or weed control at 200 ppm [3] | pest or weed control at 200 ppm [4]

C#CCN(Cc1ccc(-c2noc(C(F)(F)F)n2)cc1)C(=O)C1CC1 [Compound 1.201, N-prop-2-ynyl-N-[[4-[5-(trifluoromethyl)-1,2,4-oxadiazol-3-yl]phenyl]methyl]-cyclopropane-carboxamide]
≥ 80%: pest or weed control at 200 ppm [1] | inhibition of growth at 20 ppm [2] | pest or weed control at 200 ppm [3] | pest or weed control at 200 ppm [4]

C#CCN(Cc1ccc(-c2noc(C(F)(F)F)n2)cc1)C(=O)c1ccccc1 [Compound 1.202, N-prop-2-ynyl-N-[[4-[5-(trifluoromethyl)-1,2,4-oxadiazol-3-yl]phenyl]methyl]-benzamide]
≥ 80%: pest or weed control at 200 ppm [1] | inhibition of growth at 20 ppm [2] | pest or weed control at 200 ppm [3] | pest or weed control at 200 ppm [4]

CC(C)C(=O)N(Cc1ccc(-c2noc(C(F)(F)F)n2)cc1)CC1CC1 [Compound 1.206, N-(cyclopropylmethyl)-2-methyl-N-[[4-[5-(trifluoromethyl)-1,2,4-oxadiazol-3-yl]phenyl]methyl]-propanamide]
≥ 80%: pest or weed control at 200 ppm [1] | inhibition of growth at 20 ppm [2] | pest or weed control at 200 ppm [3] | pest or weed control at 200 ppm [4]

O=C(C1CCOC1)N(Cc1ccc(-c2noc(C(F)(F)F)n2)cc1)CC1CC1 (stereo not shown) [Compound 1.215, N-(cyclopropylmethyl)-N-[[4-[5-(trifluoromethyl)-1,2,4-oxadiazol-3-yl]phenyl]methyl]-tetrahydrofuran-3-carboxamide]
≥ 80%: pest or weed control at 200 ppm [1] | inhibition of growth at 20 ppm [2] | pest or weed control at 200 ppm [3] | pest or weed control at 200 ppm [4]

O=C(C1CSC1)N(Cc1ccc(-c2noc(C(F)(F)F)n2)cc1)CC1CC1 [Compound 1.216, N-(cyclopropylmethyl)-N-[[4-[5-(trifluoromethyl)-1,2,4-oxadiazol-3-yl]phenyl]methyl]-thietane-3-carboxamide]
≥ 80%: pest or weed control at 200 ppm [1] | inhibition of growth at 20 ppm [2] | pest or weed control at 200 ppm [3] | pest or weed control at 200 ppm [4]

COCCC(=O)N(Cc1ccc(-c2noc(C(F)(F)F)n2)cc1)CC1CC1 [Compound 1.217, N-(cyclopropylmethyl)-3-melhoxy-N-[[4-[5-(trifluoromethyl)-1,2,4-oxadiazol-3-yl]phenyl]methyl]-propanamide]
≥ 80%: pest or weed control at 200 ppm [1] | inhibition of growth at 20 ppm [2] | pest or weed control at 200 ppm [3] | pest or weed control at 200 ppm [4]

CC1CC1C(=O)N(Cc1ccc(-c2noc(C(F)(F)F)n2)cc1)CC1CC1 (stereo not shown) [Compound 1.223, N-(cyclopropylmethyl)-2-methyl-N-[[4-[5-(trifluoromethyl)-1,2,4-oxadiazol-3-yl]phenyl]methyl]-cyclopropane-carboxamide]
≥ 80%: pest or weed control at 200 ppm [1] | inhibition of growth at 20 ppm [2] | pest or weed control at 200 ppm [3] | pest or weed control at 200 ppm [4]

CC1(C(=O)N(Cc2ccc(-c3noc(C(F)(F)F)n3)cc2)CC2CC2)CC1 [Compound 1.226, N-(cyclopropylmethyl)-1-methyl-N-[[4-[5-(trifluoromethyl)-1,2,4-oxadiazol-3-yl]phenyl]methyl]-cyctopropane-carboxamide]
≥ 80%: pest or weed control at 200 ppm [1] | inhibition of growth at 20 ppm [2] | pest or weed control at 200 ppm [3] | pest or weed control at 200 ppm [4]

CCC(=O)N(Cc1ccc(-c2noc(C(F)(F)F)n2)cc1)CC1CC1 [Compound 1.227, N-(cyclopropylmethyl)-N-[[4-[5-(trifluoromethyl)-1,2,4-oxadiazol-3-yl]phenyl]methyl]-propanamide]
≥ 80%: pest or weed control at 200 ppm [1] | inhibition of growth at 20 ppm [2] | pest or weed control at 200 ppm [3] | pest or weed control at 200 ppm [4]

C=C(C)C(=O)N(Cc1ccc(-c2noc(C(F)(F)F)n2)cc1)CC1CC1 [Compound 1.229, N-(cyclopropylmethyl)-2-methyl-N-[[4-[5-(trifluoromethyl)-1,2,4-oxadiazol-3-yl]phenyl]methyl]-prop-2-enamide]
≥ 80%: pest or weed control at 200 ppm [1] | inhibition of growth at 20 ppm [2] | pest or weed control at 200 ppm [3] | pest or weed control at 200 ppm [4]

O=C(C1CCSCC1)N(Cc1ccc(-c2noc(C(F)(F)F)n2)cc1)CC1CC1 [Compound 1.230, N-(cyclopropylmethyl)-N-[[4-[5-(trifluoromethyl)-1,2,4-oxadiazol-3-yl]phenyl]methyl]-tetrahydrothiopyran-4-carboxamide]
≥ 80%: pest or weed control at 200 ppm [1] | inhibition of growth at 20 ppm [2] | pest or weed control at 200 ppm [3] | pest or weed control at 200 ppm [4]

CCC(C)C(=O)N(Cc1ccc(-c2noc(C(F)(F)F)n2)cc1)CC1CC1 (stereo not shown) [Compound 1.233, N-(cyclopropylmethyl)-2-methyl-N-[[4-[5-(trifluoromethyl)-1,2,4-oxadiazol-3-yl]phenyl]methyl]-butanamide]
≥ 80%: pest or weed control at 200 ppm [1] | inhibition of growth at 20 ppm [2] | pest or weed control at 200 ppm [3] | pest or weed control at 200 ppm [4]

CC1(C(=O)N(Cc2ccc(-c3noc(C(F)(F)F)n3)cc2)CC2CC2)COC1 [Compound 1.235, N-(cyclopropylmethyl)-3-methyl-N-[[4-[5-(trifluoromethyl)-1,2,4-oxadiazol-3-yl]phenyl]methyl]-oxetane-3-carboxamide]
≥ 80%: pest or weed control at 200 ppm [1] | inhibition of growth at 20 ppm [2] | pest or weed control at 200 ppm [3] | pest or weed control at 200 ppm [4]
